In PubChem BioAssay (NCI) one finds TGI and GI50 data, which are given here for 13 compounds.

Structures are written as SMILES.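 Growth conditions: 96-well plates. Treatment: test compound, 48 hours, 5 concentrations. Analysis: linear interpolation between bracketing concentrations; unreached endpoints set to highest concentration. GI50 is the concentration that inhibits growth by half. TGI denotes the concentration required for complete inhibition of growth.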

Among the test systems are SF-539 CNS; NCI-H522 lung; HT29 colon; UACC-257 melanoma; 786-0 renal; LOX IMVI melanoma; SK-MEL-2 melanoma; CAKI-1 renal; NCI-H460 lung; A498 renal.
Test in all cases: DTP human tumour cell line panel, 48 h

In the case of `Sc1ccc2ccccc2c1CNCc1ccccc1`, the TGI in the assay on SF-539 CNS is 29.3 µM; in the assay on NCI-H522 lung, 18.3 µM; in the assay with HT29 colon, above 100 µM; in the assay with UACC-257 melanoma it was above 100 µM; with 786-0 renal, 37 µM; in the assay on LOX IMVI melanoma, 18.6 µM. Further, the TGI in the assay on SK-MEL-2 melanoma was 45.5 µM; in the assay on CAKI-1 renal it was 43.8 µM; in the assay with NCI-H460 lung, above 100 µM; with A498 renal it was 95.5 µM.
For the compound `N.N.N.N.O=NN1CCCCCC1(P(=O)([O-])[O-])P(=O)([O-])[O-].[Pt+4].[Pt+4]`, the GI50 in the assay with SF-539 CNS, in the assay on NCI-H522 lung, in the assay on HT29 colon, with UACC-257 melanoma, in the assay on 786-0 renal and with LOX IMVI melanoma was above 100 µM each time. Moreover, the GI50 in the assay with SK-MEL-2 melanoma is 79.6 µM; with CAKI-1 renal it was above 100 µM; in the assay on NCI-H460 lung, above 100 µM; with A498 renal it was above 100 µM. The TGI in the assay on SF-539 CNS, in the assay with NCI-H522 lung, in the assay with HT29 colon, in the assay on UACC-257 melanoma, in the assay with 786-0 renal and in the assay with LOX IMVI melanoma was above 100 µM each time. Moreover, the TGI in the assay with SK-MEL-2 melanoma, in the assay with CAKI-1 renal, in the assay on NCI-H460 lung and in the assay with A498 renal was above 100 µM throughout.
In the case of `CCN(CC)CC.CCOc1ccc(NC(=O)N=C=[N-])cc1.[CH-]1CCCCC1.[CH-]1CCCCC1.[CH-]1CCCCC1.[Cl-].[Sn+4]`, the GI50 with SF-539 CNS is 0.0234 µM; with NCI-H522 lung, 0.0205 µM; in the assay on HT29 colon, 0.022 µM; in the assay with UACC-257 melanoma it was 0.0389 µM; in the assay on 786-0 renal, 0.0157 µM; in the assay on LOX IMVI melanoma, 0.0157 µM. In addition, the GI50 was 0.0376 µM in the assay on SK-MEL-2 melanoma, 0.0282 µM with CAKI-1 renal, 0.0279 µM in the assay with NCI-H460 lung and 0.0423 µM in the assay with A498 renal. Moreover, the TGI is 0.052 µM with SF-539 CNS; 0.0549 µM in the assay with NCI-H522 lung; 0.0467 µM with HT29 colon; 0.12 µM in the assay on UACC-257 melanoma; 0.0372 µM in the assay with 786-0 renal; 0.0483 µM with LOX IMVI melanoma. The TGI in the assay with SK-MEL-2 melanoma turned out to be 0.0964 µM; in the assay on CAKI-1 renal, 0.0969 µM; with NCI-H460 lung it was 0.575 µM; in the assay with A498 renal, 0.0959 µM.
With `COc1cc2c(F)nccc2cc1C(=O)N[C@@H](c1ccc(F)c(Cl)c1)[C@@H]1C[C@@H](O)CN1`, the GI50 is 0.0677 µM in the assay on SF-539 CNS; 12 µM in the assay with NCI-H522 lung; 2.35 µM in the assay with HT29 colon; 1.33 µM with UACC-257 melanoma; 0.076 µM in the assay on 786-0 renal; 10.2 µM in the assay on LOX IMVI melanoma. In addition, the GI50 in the assay on SK-MEL-2 melanoma is 11.4 µM; with CAKI-1 renal it was 0.355 µM; in the assay on NCI-H460 lung, 0.623 µM; with A498 renal, 0.0301 µM. Also, the TGI with SF-539 CNS came to 11.1 µM; in the assay on NCI-H522 lung, 26.7 µM; in the assay on HT29 colon, 19.6 µM; in the assay with UACC-257 melanoma, 19.6 µM; in the assay on 786-0 renal, 11.5 µM; with LOX IMVI melanoma, 22.4 µM. Besides, the TGI in the assay on SK-MEL-2 melanoma came to 25.2 µM; in the assay on CAKI-1 renal, 14.6 µM; with NCI-H460 lung it was 15.8 µM; with A498 renal, 1.89 µM.
On to `CCN1C(=O)N(CC)C2C1NN=c1s/c(=C\c3ccccc3F)c(=O)n12` (centres undefined), for which the GI50 in the assay on SF-539 CNS is 0.0236 µM; in the assay with NCI-H522 lung, 0.0192 µM; in the assay with HT29 colon, 0.0319 µM; in the assay with UACC-257 melanoma it was 2.11 µM; in the assay with 786-0 renal it was 0.061 µM; with LOX IMVI melanoma, 0.0411 µM. The GI50 in the assay with SK-MEL-2 melanoma was 0.0489 µM; in the assay with CAKI-1 renal it was 0.0323 µM; with NCI-H460 lung, 0.0355 µM; with A498 renal, 0.0154 µM. For the same compound, the TGI is 0.0696 µM with SF-539 CNS; 1.3 µM in the assay on NCI-H522 lung; above 100 µM with UACC-257 melanoma; 52.8 µM with 786-0 renal; above 100 µM in the assay on LOX IMVI melanoma; above 38.9 µM with SK-MEL-2 melanoma. In addition, the figures for the TGI with CAKI-1 renal, with NCI-H460 lung and with A498 renal were above 100 µM, above 40.6 µM and 0.064 µM, respectively.
As for `Cc1ccc(-n2c3nc(=O)n(C)c(=O)c-3nc3ccccc32)cc1`, the TGI with SF-539 CNS was above 100 µM; in the assay on NCI-H522 lung it was 32.6 µM; with HT29 colon, 19.1 µM; with UACC-257 melanoma, 26.9 µM; in the assay with 786-0 renal, above 100 µM; in the assay with LOX IMVI melanoma, 43.7 µM. Further, the TGI is 37.2 µM in the assay with SK-MEL-2 melanoma, 70.7 µM in the assay on CAKI-1 renal, 17.3 µM in the assay on NCI-H460 lung and above 100 µM in the assay with A498 renal.
As for `Cc1cc(C(=O)Nc2nc3cccc(Cl)c3n2[C@@H]2CCCCN(C(=O)/C=C/CN(C)C)C2)ccn1`, the GI50 is 15.1 µM in the assay with SF-539 CNS; 0.108 µM in the assay with NCI-H522 lung; 9.91 µM in the assay with HT29 colon; 18.8 µM with UACC-257 melanoma; 3.78 µM in the assay with 786-0 renal; 10.1 µM with LOX IMVI melanoma. Moreover, the GI50 was 17.5 µM in the assay on SK-MEL-2 melanoma, 0.58 µM in the assay on CAKI-1 renal, 8.7 µM in the assay with NCI-H460 lung and 0.514 µM in the assay on A498 renal. The TGI in the assay with SF-539 CNS worked out at 29.5 µM; in the assay on NCI-H522 lung, 14.4 µM; in the assay on HT29 colon, 30.2 µM; with UACC-257 melanoma it was 34.1 µM; with 786-0 renal, 21.6 µM; with LOX IMVI melanoma, 23.9 µM. Besides, the TGI was 34.2 µM with SK-MEL-2 melanoma, 17.2 µM in the assay on CAKI-1 renal, 23.1 µM in the assay on NCI-H460 lung and 14.1 µM in the assay on A498 renal.
Consider `CC(C)CCSC1=CC(=O)c2ccccc2C1=O`, for which the GI50 in the assay on SF-539 CNS was 5.74 µM; in the assay on NCI-H522 lung it was 1.6 µM; in the assay with HT29 colon it was 23.7 µM; with UACC-257 melanoma it was 13.3 µM; in the assay on 786-0 renal, 19.8 µM; in the assay on LOX IMVI melanoma, 3.56 µM. The GI50 is 6.73 µM with SK-MEL-2 melanoma, 10.3 µM with CAKI-1 renal, 16.7 µM in the assay on NCI-H460 lung and 19.8 µM in the assay on A498 renal. Also, the TGI turned out to be 22.7 µM with SF-539 CNS; 6.38 µM in the assay with NCI-H522 lung; 53.7 µM in the assay with HT29 colon; 26.7 µM with UACC-257 melanoma; 34.4 µM in the assay on 786-0 renal; 15.6 µM with LOX IMVI melanoma. In addition, the TGI was found to be 17.3 µM in the assay on SK-MEL-2 melanoma, 21.9 µM in the assay on CAKI-1 renal, 42.9 µM with NCI-H460 lung and 63.9 µM in the assay with A498 renal.
For `CCN(CC)c1ccc(C2CC(c3cc(OC)c(OC)c(OC)c3)=NN2)cc1` (centres undefined), the GI50 with SF-539 CNS is 0.29 µM; in the assay with NCI-H522 lung it was 0.295 µM; in the assay with HT29 colon it was 0.365 µM; in the assay with UACC-257 melanoma, 20.2 µM; in the assay with 786-0 renal it was 0.303 µM; in the assay with LOX IMVI melanoma, 0.83 µM. Also, the GI50 was 6.6 µM in the assay with SK-MEL-2 melanoma, 0.346 µM in the assay with CAKI-1 renal, 0.331 µM in the assay on NCI-H460 lung and 0.443 µM in the assay with A498 renal. For the same compound, the TGI in the assay with SF-539 CNS is 2.18 µM; in the assay on NCI-H522 lung it was 5.18 µM; in the assay with HT29 colon, above 43 µM; in the assay with UACC-257 melanoma it was above 100 µM; in the assay on LOX IMVI melanoma, above 42 µM; in the assay on SK-MEL-2 melanoma, above 95.5 µM. Moreover, the TGI in the assay with NCI-H460 lung was 11.8 µM; in the assay on A498 renal it was 2.44 µM.
With `CO/[N+]([O-])=C\C(=O)N/C=C/C(=O)O`, the TGI with SF-539 CNS, in the assay with NCI-H522 lung, with UACC-257 melanoma, with 786-0 renal, in the assay with LOX IMVI melanoma and with CAKI-1 renal was above 100 µM in each case. Besides, the TGI in the assay on NCI-H460 lung and in the assay on A498 renal was above 100 µM each time.
As for `COc1ccc(CCN2CCCN3C2=Nc2ccccc2S3(=O)=O)cc1`, the GI50 with SF-539 CNS was 0.272 µM; in the assay on NCI-H522 lung it was 0.278 µM; in the assay with HT29 colon it was 0.323 µM; in the assay with 786-0 renal, 0.651 µM; in the assay with LOX IMVI melanoma it was 0.669 µM; in the assay with SK-MEL-2 melanoma it was 0.521 µM. The figures for the GI50 in the assay on CAKI-1 renal, in the assay on NCI-H460 lung and with A498 renal were 0.73 µM, 0.429 µM and 0.195 µM, respectively. The TGI is 1.04 µM in the assay on SF-539 CNS; 8.86 µM with NCI-H522 lung; 17.5 µM in the assay on HT29 colon; above 100 µM in the assay on 786-0 renal; above 100 µM in the assay on LOX IMVI melanoma; above 100 µM with SK-MEL-2 melanoma. In addition, the TGI in the assay on CAKI-1 renal was above 100 µM; with NCI-H460 lung, 44.1 µM; in the assay on A498 renal it was 3.2 µM.
With `COC(=O)[C@H]1C(=O)[C@@]2(C)[C@H]([C@H](OC(=O)c3ccccc3)[C@]3(O)C[C@H](OC(=O)[C@H](O)[C@@H](NC(=O)c4ccc(F)cc4)c4ccccc4)C(C)=C1C3(C)C)[C@]1(OC(C)=O)CO[C@@H]1C[C@@H]2O`, the GI50 in the assay on SF-539 CNS is 0.00749 µM; with NCI-H522 lung, 0.0135 µM; in the assay with HT29 colon it was 0.00378 µM; in the assay on UACC-257 melanoma, 0.0673 µM; with 786-0 renal it was 0.0805 µM; in the assay on LOX IMVI melanoma, 0.00974 µM. Moreover, the GI50 was 0.12 µM in the assay on CAKI-1 renal, 0.00739 µM with NCI-H460 lung and 0.0315 µM with A498 renal. Besides, the TGI is 0.0753 µM in the assay with SF-539 CNS; above 7.4 µM in the assay on NCI-H522 lung; above 25 µM in the assay on HT29 colon; above 25 µM with UACC-257 melanoma; above 25 µM in the assay with LOX IMVI melanoma; above 16.3 µM in the assay with CAKI-1 renal. Further, the TGI with NCI-H460 lung turned out to be 3.64 µM.
Consider `CC(/C=C/C(=O)c1sc(-n2nc(-c3ccccc3)cc2-c2ccccc2)nc1C)=C\c1ccccc1`, for which the TGI in the assay on SF-539 CNS, in the assay with NCI-H522 lung, with UACC-257 melanoma, with 786-0 renal, in the assay with LOX IMVI melanoma and in the assay with SK-MEL-2 melanoma was above 100 µM in each case. Further, the TGI in the assay on CAKI-1 renal, with NCI-H460 lung and with A498 renal was above 100 µM each time. Moreover, the GI50 with A498 renal was above 100 µM.
